In ChEMBL document CHEMBL4033763, “Synthesis and Anti-HCV Activity of a Novel 2',3'-Dideoxy-2'-α-fluoro-2'-β-C-methyl Guanosine Phosphoramidate Prodrug” (ACS Med Chem Lett, 2017):

Experiments:
Hepatitis C virus [1] = experiment: Antiviral activity against HCV 1b replicon infected in human HuH7 cells expressing HIV LTR promoter driven luciferase reporter gene assessed as reduction in viral RNA replication incubated for 48 hrs by lucifrease reporter gene assay; format: functional, cell-based, Hepacivirus hominis; details: genotype 1b, Huh-7, 48 h
[2] = Cytotoxicity against human HuH7 cells expressing HIV LTR promoter driven luciferase reporter gene in presence of 10% fetal bovine serum by lucifrease reporter gene assay; format: cell-based, Huh-7
Hepatitis C virus [3] = experiment: Antiviral activity against HCV 1a replicon infected in human HuH7 cells expressing HIV LTR promoter driven luciferase reporter gene assessed as reduction in viral RNA replication incubated for 48 hrs by lucifrease reporter gene assay; format: functional, cell-based, Hepacivirus hominis; details: subtype 1a, Huh-7, 48 h
Hepatitis C virus [4] = experiment: Antiviral activity against NS5B S282T mutant expressing HCV 1b replicon infected in human HuH7 cells expressing HIV LTR promoter driven luciferase reporter gene assessed as reduction in viral RNA replication incubated for 48 hrs by lucifrease reporter gene assay; format: functional, cell-based, Hepacivirus hominis; details: genotype 1b, Huh-7, 48 h
Hepatitis C virus [5] = experiment: Antiviral activity against HCV 2a replicon infected in human HuH7 cells expressing HIV LTR promoter driven luciferase reporter gene assessed as reduction in viral RNA replication incubated for 48 hrs by lucifrease reporter gene assay; format: functional, cell-based, Hepacivirus hominis; details: genotype 2a, Huh-7, 48 h

| Compound | EC50 (Hepatitis C virus [1]) [nM] | CC50 [2] [nM] | EC50 (Hepatitis C virus [3]) [nM] | EC50 (Hepatitis C virus [4]) [nM] | EC50 (Hepatitis C virus [5]) [nM] |
| --- | --- | --- | --- | --- | --- |
| COc1nc(N)nc2c1ncn2[C@@H]1O[C@H](CO)C[C@@]1(C)F | > 100000 | > 100000 | – | – | – |
| COc1nc(N)nc2c1ncn2[C@@H]1O[C@H](CO[P@@](=O)(N[C@@H](C)C(=O)OC2CCCC2)Oc2ccccc2)C[C@@]1(C)F | 580 | > 100000 | 1100 | 810 | 390 |
